# According to paper PMC12469971 (Gels, 2025):
# “And” between values parts separate entries of the source, which are not always exact repeats. Identical values can stand only once. Like-named read-outs stand apart in the source and are kept apart here.
# How the values were obtained:
# C6 tumor cell line = assay: Cell apoptosis by Annexin V-FITC/PI flow cytometry; type: cell-based, Rattus norvegicus; details: C6, 7.5 µg/mL, 24 h
# Source text: (§1) The possible mechanism of action for the analyzed nanoparticles was established by determining the process of cellular apoptosis using flow cytometry, a method that enabled the assessment of the percentage of live, dead, pre-apoptotic, and apoptotic cells (Table S2 and Figure 8).
# (§2) Apoptosis, also known as programmed cell death, is a natural process for eliminating cells. It involves the formation of membrane vesicles, chromatin condensation, and DNA fragmentation. Annexin V, which is a calcium-dependent protein, binds with high affinity to phosphatidylserine (PS), which moves from the inner to the outer membrane during apoptosis. When Annexin V is fluorescently labeled, this PS exposure can be detected using flow cytometry. The presence of PS signals macrophages to clear the cell through phagocytosis. […] In late apoptotic and necrotic cells, both the plasma and nuclear membrane integrity is compromised, enabling propidium iodide to penetrate the membrane, bind to nucleic acids, and produce red fluorescence. Cells were cultured in 24-well plates at a density of 50,000 cells per well to create a monolayer. After 24 h of incubation, test compounds (free drugs or nanoparticle formulations) were applied at a concentration of 7.5 µg/mL and incubated for an additional 24 h. Flow cytometry was used to process and analyze the cells according to the manufacturer’s instructions for the assay kit. For interpretation, cells that were negative for both propidium iodide (PI) and Annexin V were classified as viable; cells that were Annexin V-positive and PI-negative were considered apoptotic; and cells that were positive for both markers were identified as necrotic.
# V79-4 normal cell line = assay: Cell apoptosis by Annexin V-FITC/PI flow cytometry; type: cell-based, Cricetulus griseus; details: V79-4, 7.5 µg/mL, 24 h
# Source text: as §1, §2
# [1] = PAMPA-BBB permeability assay (kit PMBBB-096); type: in vitro ADME; details: for Papp at 18 h, 500 μM: PAMPA, 37 °C
# Procedure: The in vitro parallel artificial permeability assay (PAMPA, Kit PMBBB-096 from BioAssay Systems (Hayward, CA, USA)) was employed to evaluate whether nanoparticles can cross the BBB. […] As a negative standard, we used the low-permeability (LP) and high-permeability (HP) standards from the PAMPA-BBB kit from Bioassay.
# Specifically, the PMBBB-096 (BioAssay Systems Hayward, CA, USA) kit supports in vitro assessment of BBB permeability. […] Three hundred microliters (300 μL) of 0.01 M PBS with 5% DMSO was added to the acceptor plate (96-well PTFE acceptor plates) (BioAssay Systems Hayward, CA, USA). The donor plate (96-well polycarbonate filter-based donor plates, pore size 0.45 μm) was coated with 5 μL of lyophilized brain lipid extract solution, made by dissolving the brain extract in 400 μL of dodecane. […] In parallel, 200 μM equilibrium standards were prepared in separate Eppendorf tubes for each test and control sample. In Eppendorf tubes, 80 μL of test solutions or the control standard at a concentration of 500 μM were mixed with 120 μL of PBS solution containing 5% DMSO. The blank was prepared using the PBS solution with 5% DMSO. The next day, equilibrium standards and the blank solution were utilized, and the acceptor compartment’s solution was analyzed. […] Based on the absorbance value determined for each respective test sample and the permeability control standard, the permeability rate (Pe) was calculated using the following Equation (4):(4) Pe=C×−ln1−ODA/ODE,cm/s where ODA represents the absorbance of the acceptor plate solution minus the absorbance of the blank, and ODE indicates the absorbance of the equilibrium standard minus the absorbance of the blank.
# Cytotoxicity, MTT assay = details: Chinese hamster, V79-4 lung fibroblasts (ATCC CCL-93), 48 h; for viability at 48 h, 1.875 μg/mL: Cell viability (%) V79-4, 1.875 μg/mL (nanoparticles or free drug); for viability at 48 h, 3.75 μg/mL: Cell viability (%) V79-4, 3.75 μg/mL; for viability at 48 h, 7.5 μg/mL: Cell viability (%) V79-4, 7.5 μg/mL; for viability at 48 h, 15 μg/mL: Cell viability (%) V79-4, 15 μg/mL
# Procedure: (§3) This IC50 value was derived from a graph plotting the percentage of dead cells against the drug concentration in the samples. […] A lower IC50 value indicates the higher cytotoxicity of the samples.
# (§4) In both cases, the growth media were supplemented with 10% fetal bovine serum (SFB, Euroclone S.p.A., Milan, Italy) and 1% antibiotic solution, containing penicillin at […] and streptomycin at 100 IU/mL (Capricorn Scientific GmbH, Ebsdorfergrund, Germany), maintained at a temperature of 37 °C in a humidified environment with 5% CO2 [130]. Products tested: Albumin nanoparticles obtained through self-assembly and crosslinking with OG were evaluated.
# (§5) This method relies on the conversion of MTT, a water-soluble yellow compound, into dark blue, water-insoluble formazan by the mitochondrial dehydrogenases of living cells. […] After treatment, the medium was removed, the cells were washed with phosphate-buffered saline (PBS), and then incubated with 100 μL of fresh medium and 10 μL of MTT (5 mg/mL) for 3 h at 37 °C. The resulting formazan crystals were solubilized with 50 μL of DMSO, and absorbance was measured at 570 nm using the EZ Read 400 reader (Biochrom, Cambridge, UK). The intensity of the resulting color directly correlates with the number of viable cells, and viability was calculated using Equation (6):Cell viability (%) = Esample/Econtrol × 100, where E = extinction(6)
# C6 tumor cells = assay: Cytotoxicity, MTT assay; details: for viability at 1.875 µg/mL / viability at 3.75 µg/mL / viability at 7.5 µg/mL / viability at 15 µg/mL / IC50: Rattus norvegicus; for viability at 1.875 µg/mL / viability at 3.75 µg/mL / viability at 7.5 µg/mL / viability at 15 µg/mL / Percentage of dead cells per C6 cell line (cytotoxic effect): 48 h; for viability at 1.875 µg/mL: read-out: Cell viability (%) C6, 1.875 μg/mL (nanoparticles or free drug), 48 h; for viability at 3.75 µg/mL: read-out: Cell viability (%) C6, 3.75 μg/mL, 48 h; for viability at 7.5 µg/mL: read-out: Cell viability (%) C6, 7.5 μg/mL, 48 h; for viability at 15 µg/mL: read-out: Cell viability (%) C6, 15 μg/mL, 48 h; for IC50: C6, 48 h
# Procedure: as §3, §4, §5
# normal V79-4 cells = assay: Cytotoxicity, MTT assay; details: for Percentage of dead cells per V79-4 cell line (cytotoxic effect): 48 h; for IC50: Cricetulus griseus, V79-4, 48 h
# Procedure: as §3, §4, §5
# [2] = pH stability of free and encapsulated curcumin; type: physicochemical; design: degradation rate constant k: unit: h⁻¹; details: dark; for half-life at 4 μg/mL: read-out: degradation half-life t1/2 (converted)
# Procedure: The samples were maintained at 37 °C in the dark, in closed containers, for 8 h. […] The particles were maintained at 37 °C in an oven (AG-System, F.lli Galli G. & P., Milano, Italia) protected from light and air exposure. […] The amount of curcumin found in the samples was then determined using a Nanodrop spectrophotometer. […] The half-life (t1/2) for first-order reactions depends solely on the degradation rate constant, k, and is independent of the substance’s initial concentration. All measurements were conducted in triplicate, and the results are reported as average values ± standard deviation (STDev).
# [3] = Light stability of free and encapsulated curcumin (natural light and air); type: physicochemical
# Procedure: The analyzed HSA nanoparticles were weighed and then exposed to air and natural light for 30 days in Petri dishes. […] All determinations were performed in triplicate, and the results are presented as mean values ± standard deviation (STDev).
# [4] = design: method as in PMID 32494134, PMID 35684445, PMID 25751368; details: rapidly hydrolyzed in physiological conditions; cited from earlier work
# [5] = Antioxidant activity, DPPH assay; type: biochemical; details: not UV-irradiated; curcumin concentration; 40 min
# Procedure: The samples were vortexed for 20 to 30 s, and their absorbance was measured at 517 nm after 40 min using a UV spectrophotometer (BOECO S-22) (BOECO, Hamburg, Germany). Ethanol is used for calibration, and ascorbic acid serves as a standard for antioxidant activity.
# The percentage of DPPH inhibition for each sample type was determined, and the IC50 values were calculated based on the concentration (μg/mL) vs. inhibition plots. Ascorbic acid was used as a standard. All measurements were performed in triplicate at room temperature.
# [6] = read-out: IC50 μg/mL for TMZ/CURC on the C6 Cell Line
# [7] = read-out: IC50 μg/mL for TMZ/CURC on the V79-4 Cell Line
smiles,measurement,setting,value
"COc1cc(/C=C/C(=O)CC(=O)/C=C/c2ccc(O)c(OC)c2)ccc1O [Curcumin, curcumin]",Apoptotic cells (%),C6 tumor cell line,35.64%
same,Dead cells (%),C6 tumor cell line,14.33%
same,Living cells (%),C6 tumor cell line,37.92%
same,Preapoptotic cells (%),C6 tumor cell line,12.11%
same,Apoptotic cells (%),V79-4 normal cell line,27.09%
same,Dead cells (%),V79-4 normal cell line,17.93%
same,Living cells (%),V79-4 normal cell line,43.47%
same,"Papp at 18 h, 500 μM","[1]; pH 7.4, Permeability rate, Pe (Curcumin), PAMPA-BBB, read at 425 nm",0.21 ×10⁻⁶ cm/s
same,"viability at 48 h, 1.875 μg/mL","Cytotoxicity, MTT assay",75.8%
same,"viability at 48 h, 3.75 μg/mL","Cytotoxicity, MTT assay",60.9%
same,"viability at 48 h, 7.5 μg/mL","Cytotoxicity, MTT assay",52.7%
same,"viability at 48 h, 15 μg/mL","Cytotoxicity, MTT assay",41.6%
same,viability at 1.875 µg/mL,C6 tumor cells,62.3%
same,viability at 3.75 µg/mL,C6 tumor cells,55.8%
same,viability at 7.5 µg/mL,C6 tumor cells,39.2%
same,viability at 15 µg/mL,C6 tumor cells,37.4%
same,IC50,C6 tumor cells; [6],6.31 µg/mL
same,IC50,C6 tumor cells; read-out: IC50 for μg/mL for CURC on the C6 Cell Line,6.31 µg/mL
same,Percentage of dead cells per C6 cell line (cytotoxic effect),"C6 tumor cells; rat, 1.875 μg/mL",37.66%
same,Percentage of dead cells per C6 cell line (cytotoxic effect),"C6 tumor cells; rat, 3.75 μg/mL",44.22%
same,Percentage of dead cells per C6 cell line (cytotoxic effect),"C6 tumor cells; rat, 7.5 μg/mL",60.84%
same,Percentage of dead cells per C6 cell line (cytotoxic effect),"C6 tumor cells; rat, 15 μg/mL",62.63%
same,Percentage of dead cells per V79-4 cell line (cytotoxic effect),normal V79-4 cells; 1.875 μg/mL,24.21%
same,Percentage of dead cells per V79-4 cell line (cytotoxic effect),normal V79-4 cells; 3.75 μg/mL,39.14%
same,Percentage of dead cells per V79-4 cell line (cytotoxic effect),normal V79-4 cells; 7.5 μg/mL,47.33%
same,Percentage of dead cells per V79-4 cell line (cytotoxic effect),normal V79-4 cells; 15 μg/mL,58.41%
same,IC50,normal V79-4 cells; read-out: IC 50 μg/mL for CURC on the V79-4 Cell Line,10.4 µg/mL
same,IC50,normal V79-4 cells; [7],10.4 µg/mL
same,half-life at 4 μg/mL,"[2]; buffer solution (pH 3), pH 3, 37 °C",462 min
same,half-life at 4 μg/mL,"[2]; buffer solution (pH 9), pH 9, 37 °C",138 min
same,half-life at 4 μg/mL,"[2]; buffer solution, pH 6.8, 37 °C",390 min
same,half-life at 4 μg/mL,"[2]; buffer solution, pH 7.4, 37 °C",348 min
same,Undegraded Curcumin (%) 1 h,"[2]; pH 3, 37 °C",76%
same,Undegraded Curcumin (%) 5 h,"[2]; pH 3, 37 °C",55.7%
same,Undegraded Curcumin (%) 8 h,"[2]; pH 3, 37 °C",47.6%
same,degradation rate constant k,"[2]; pH 3, 37 °C",0.091
same,Undegraded Curcumin (%) 1 h,"[2]; pH 6.8, 37 °C",76.4%
same,Undegraded Curcumin (%) 5 h,"[2]; pH 6.8, 37 °C",56.8%
same,Undegraded Curcumin (%) 8 h,"[2]; pH 6.8, 37 °C",43.7%
same,degradation rate constant k,"[2]; pH 6.8, 37 °C",0.107
same,Undegraded Curcumin (%) 1 h,"[2]; pH 7.4, 37 °C",77%
same,Undegraded Curcumin (%) 5 h,"[2]; pH 7.4, 37 °C",52.7%
same,Undegraded Curcumin (%) 8 h,"[2]; pH 7.4, 37 °C",41.1%
same,degradation rate constant k,"[2]; pH 7.4, 37 °C",0.119
same,Undegraded Curcumin (%) 1 h,"[2]; pH 9, 37 °C",61%
same,Undegraded Curcumin (%) 5 h,"[2]; pH 9, 37 °C",21%
same,Undegraded Curcumin (%) 8 h,"[2]; pH 9, 37 °C",8.6%
same,degradation rate constant k,"[2]; pH 9, 37 °C",0.301
same,"Percentage of Degradation of curcumin, Day 3",[3],6.8%
same,"Percentage of Degradation of curcumin, Day 10",[3],13.5%
same,"Percentage of Degradation of curcumin, Day 18",[3],16.9%
same,"Percentage of Degradation of curcumin, Day 26",[3],26%
same,"Percentage of Degradation of curcumin, Day 30",[3],32.3%
"Cn1nnc2c(C(N)=O)ncn2c1=O [TMZ, temozolomide]",Apoptotic cells (%),C6 tumor cell line,33.59%
same,Dead cells (%),C6 tumor cell line,16.45%
same,Living cells (%),C6 tumor cell line,40.08%
same,Preapoptotic cells (%),C6 tumor cell line,9.88%
same,Apoptotic cells (%),V79-4 normal cell line,24.86%
same,Dead cells (%),V79-4 normal cell line,15.17%
same,Living cells (%),V79-4 normal cell line,49.36%
same,Preapoptotic cells (%),V79-4 normal cell line,10.61%
same,"Papp at 18 h, 500 μM","[1]; pH 7.4, PAMPA-BBB, read at 327 nm, read-out: Permeability rate, Pe (TMZ)",0.76 ×10⁻⁶ cm/s
same,BBB permeability category,"[1]; PAMPA-BBB, in words",low permeability
same,"viability at 48 h, 1.875 μg/mL","Cytotoxicity, MTT assay",75.8%
same,"viability at 48 h, 3.75 μg/mL","Cytotoxicity, MTT assay",67%
same,"viability at 48 h, 7.5 μg/mL","Cytotoxicity, MTT assay",60.4%
same,"viability at 48 h, 15 μg/mL","Cytotoxicity, MTT assay",54.5%
same,Percentage of dead cells per C6 cell line (cytotoxic effect),C6 tumor cells; 1.875 μg/mL,37.7% and 34.88%
same,Percentage of dead cells per C6 cell line (cytotoxic effect),C6 tumor cells; 3.75 μg/mL,42.5%
same,Percentage of dead cells per C6 cell line (cytotoxic effect),C6 tumor cells; 7.5 μg/mL,47.05%
same,Percentage of dead cells per C6 cell line (cytotoxic effect),C6 tumor cells; 15 μg/mL,60.95% and 59.18%
same,viability at 1.875 µg/mL,C6 tumor cells,62.3%
same,viability at 3.75 µg/mL,C6 tumor cells,57.5%
same,viability at 7.5 µg/mL,C6 tumor cells,53%
same,viability at 15 µg/mL,C6 tumor cells,39%
same,IC50,C6 tumor cells; read-out: IC50 μg/mL for TMZ on the C6 Cell Line,8.75 µg/mL
same,IC50,C6 tumor cells; [6],8.75 µg/mL
same,Percentage of dead cells per V79-4 cell line (cytotoxic effect),normal V79-4 cells; 1.875 μg/mL,24.16%
same,Percentage of dead cells per V79-4 cell line (cytotoxic effect),normal V79-4 cells; 3.75 μg/mL,33.05%
same,Percentage of dead cells per V79-4 cell line (cytotoxic effect),normal V79-4 cells; 7.5 μg/mL,39.64%
same,Percentage of dead cells per V79-4 cell line (cytotoxic effect),normal V79-4 cells; 15 μg/mL,45.53%
same,IC50,normal V79-4 cells; read-out: IC50 μg/mL for TMZ on the V79-4 Cell Line,16.8 µg/mL
same,IC50,normal V79-4 cells; [7],16.8 µg/mL
same,half-life,[4],1.8 h
"O=C1O[C@H]([C@@H](O)CO)C(O)=C1O [Ascorbic acid, ascorbic acid]",IC50 (DPPH),[5],4.3 µg/mL
